In data set [1] the test system is platelet-rich plasma (PRP). Put plainly: Clot retraction. On the set-up: species or system Human. The conditions noted are these: 10 μM; thrombin 0.5 Units/mL; 2 h. The method, then: Clot retraction. Blood was obtained in 3.2% citrate tubes, which were centrifuged for 12 min at 250 g to obtain platelet-rich plasma (PRP). The assay was prepared in Khan tubes by adding 750 μL of tyrodes buffer without calcium, 200 μL of PRP, and 5 μL of red blood cells; the mixture was treated with NP4 10 μM or vehicle and incubated for 10 min. A glass rod was positioned in the center of the tube (as a support for clot adhesion) and clot retraction was initiated by adding 50 μl of 10 Units/mL thrombin (final concentration 0.5 Units/mL). Photographs were recorded at 0; 15; 30; 60; 90; and 120 min time intervals. The clots formed after 2 h were weighed to quantify retraction.

Data set [2] deals with Washed platelets. The experiment in a line: Cell viability by Calcein-AM (flow cytometry). Particulars: 1, 2, 5, 10 and 20 μM; 15 min. The format is cell-based, Human. The method, then:
(§1) Human platelet purification. The blood sample was obtained from voluntary donors (10 days without antiplatelet medication) who agreed to participate after signing informed consent (Scientific Ethics Committee of the University of Talca N° 04–2022). Briefly, blood anticoagulated with acid-citrate-dextrose (ACD) was obtained in a 4:1 v/v ratio. The sample was centrifuged for 12 min at 250 g to obtain platelet-rich plasma (PRP). Subsequently, the PRP was centrifuged for 8 min at 900 g to obtain the platelet pellet. The plasma supernatant was removed, and the platelets were resuspended in Tyrodes buffer without calcium plus ACD in a ratio of 5:1 v/v. The platelets were centrifuged once more for 8 min at 900 g and the pellet was resuspended in Tyrodes buffer without calcium. Finally, the platelets were counted (Mindray BC-3000 Plus hematology counter, Japan), adjusted to the desired concentration, and used within 3 h.
Cell viability by Calcein-AM. Washed platelets (200-250 × 10^6 platelets/mL) were labeled with 0.1 μM Calcein-AM and incubated for 15 min at 37 °C protected from light. […] Viability was analyzed on the BD Facs Lyric Flow Cytometer (BD Biosciences, USA). The percentage of Calcein-negative platelets (without fluorescence) in the CD61-PE-positive subpopulation (BD Biosciences, San José, CA, USA) was identified as non-viable platelets. […]

Data set [3] relates to complex I from Y. lipolytica mitochondrial membranes reconstituted into proteoliposomes. Put plainly: Proton pumping and activity of reconstituted complex I (ACMA quench in proteoliposomes). The format is biochemical. How it is done:
Proton pumping and activity of reconstituted complex I. Purification of complex I from Y. lipolytica mitochondrial membranes and reconstitution of complex I into Proteoliposomes was performed as previously described. Briefly, complex I was reconstituted in proteoliposomes (Cxl), and then ACMA (9-Amino-6-Chloro-2-Methoxyacridine) was added to quantify the proton pumping activity. Fluorescence changes were monitored at 25 °C in a Fluorolog-3 spectrofluorometer (Horiba Scientific). Settings: λex = 430 nm, λem = 475, slit 5 nm, time increment 0.2 s. Proteoliposomes (15 μg protein) were diluted in 2 ml assay buffer (20 mM Mops pH 7.2, 80 mM KCl, 0.5 μM valinomycin). After starting the measurement, 0.5 μM ACMA, 70 μM decylubiquinone (DBQ), 125 μM NADH, NP4 […]/vehicle, and Carbonyl cyanide m-chlorophenyl hydrazone (CCCP) 5 μM were added after 50, 100, 150, 200 and 300 s, respectively. The measurements were done in triplicate for 5, 15, 30, 45, 60 and 100 μM NP4. The Average over the time after the addition of NADH/NP4/CCCP till the next addition was taken from each measurement. The quenching after NADH the addition was taken as the zero % value and the dequench with CCCP was set to 100%. The zero value was subtracted from the dequenching with NP4 and the max dequenching with CCCP. The DMSO negative control was measured in duplicate.

A further data set deals with Whole blood. The experiment in a line: Bleeding time in vitro, Innovance PFA-200 closure time. Particulars: 10 μM, 10 min. Further details: species or system Human. How it is done:
Bleeding time in vitro Innovance PFA-200 system. Blood was obtained in 3.2% citrate tubes which were allowed to settle for 30 min before the test. Whole blood was mixed with NP4 10 μM and incubated for 10 min. Subsequently, the sample was loaded into the Collagen/Epinephrine or Collagen/ADP cartridge and the closure time was measured in the Innovance PFA-200 system (Siemens Healthcare Diagnostics Products, Munich, Germany). Eptifibatide 10 μM was used as a control.

Data set [4] deals with Washed platelets. The experiment in a line: Mitochondrial ROS (mtROS) levels (MitoSOX). The format is cell-based, Human. The method, then:
as §1
Mitochondrial ROS (mtROS) Levels. The MitoSOX probe was used to identify mitochondrial ROS production specifically. Washed platelets (50 × 10^6 platelets/mL) were labeled with the MitoSOX® Red probe (Invitrogen, Carlsbad, CA, USA) 10 μM and incubated for 20 min at 37 °C protected from light. After, compounds (1, 5, and 10 μM) were added to the platelets and incubated for 10 min at 37 °C. […]

A word on the IC50: it is the concentration that inhibits the measured activity by half. A higher IC50 goes with a need for much substance.

The structures appear in SMILES notation.

`Cc1c(C)c(O)c2c(c1O)C(=O)C(CCCC[P+](c1ccccc1)(c1ccccc1)c1ccccc1)=CC2(C)C.[Br-]` [NP4, (4-(5,8-dihydroxy-4,4,6,7-tetramethyl-1-oxo-1,4-dihydronaphthalen-2-yl)butyl)triphenyl phosphonium bromide]: in data set [1], the “Clot retraction (clot weight)” value is “does not significantly alter”. Further, the “Platelet viability (Calcein-AM negative platelets)” value in the data set on Washed platelets [2] is “none of the concentrations evaluated for NP4 showed significant effects”. The IC50 in data set [3] (ACMA dequench relative to CCCP (100%), 5-100 μM NP4) was determined as 37.7 ± 1.14 µM. For the same compound, the “Concentrations that decouple complex I in liposomes” value in data set [3] (ACMA fluorescence, proteoliposomes) was in the range of 30 to 60 µM. In addition, in the data set on Whole blood, the “Closure time PFA-200 Collagen/ADP” value is recorded as “does not significantly alter” and the “Closure time PFA-200 Collagen/Epinephrine” value is recorded as “does not significantly alter”. In the data set on Washed platelets [4] (10 μM, MitoSOX, 10 min), the mtROS generation result is listed as “able to increase”. Besides, in the data set with Washed platelets [4] (MitoTempol 1 µM added first, then NP4 10 µM), the “Dependence of depolarizing and antiplatelet effect on mtROS” value is reported as “independent of mitochondrial ROS levels”.
